In patent US20080161336A1, “Orally bioavailable CCI-779 formulations” (Wyeth, priority 2005, published 2008):

Tests used:
[1] = tested on: histologically diverse tumor cells; conditions: in vitro, cited from earlier work
[2] = Partition coefficient in 1-octanol/water system; type: physicochemical
[3] = BCS classification system; type: physicochemical
[4] = Bioavailability study: safety (adverse events, laboratory abnormalities, vital signs); type: in vivo, human
Text: On day 1 of each of the 3 study periods, the subjects received a single oral dose of 1 of 4 treatments (treatments A, B, C, or reference).
On day 1 of each of the 3 study periods, the subjects received a single oral dose of 1 of 4 treatments (A, B, C, or reference).

[5] = Stability of CCI-779 (aqueous, oxidation, hydroalcoholic granulation solution); type: physicochemical
Text: One obstacle towards the formulation of CCI-779 is its poor aqueous dissolution and low oral bioavailability. […] A CCI-779 formulation was developed that employed a wet granulation manufacturing process. See US Published Patent Application No. US-2004-0077677-A1. This process involved preparation of a hydroalcoholic granulation solution of CCI-779. Further, although the resulting tablets were stable and bioavailable, the preparation of the hydroalcoholic solution was very tedious.

Water solubility = type: physicochemical

For `COC1C[C@@H]2CC[C@@H](C)[C@@](O)(O2)C(=O)C(=O)N2CCCC[C@H]2C(=O)O[C@H]([C@H](C)CC2CC[C@@H](OC(=O)C(C)(CO)CO)[C@H](OC)C2)CC(=O)[C@H](C)/C=C(\C)[C@@H](O)[C@@H](OC)C(=O)[C@H](C)C[C@H](C)/C=C/C=C/C=C/1C` (stereo partly drawn) [CCI-779, Rapamycin 42-ester with 3-hydroxy-2-(hydroxymethyl)-2-methylpropionic acid], the “growth of tumor cells” value ([1]; CNS cancer, leukemia (T-cell), breast cancer, prostate cancer, melanoma lines among the most sensitive) is listed as “inhibit the growth”, the cell cycle effect [1] is listed as “arrested cells in the G1 phase” and the “Log PC” value [2] is listed as ≥ 4.1. For the same compound, the BCS classification [3] was “class II”, the “severity of treatment-emergent AEs” value ([4]; all 45 treatment-emergent AEs) was “mild” and the “subjects with aminotransferase elevations” value ([4]; all treatments, 4 subjects) was 10%. The “subjects with white blood cells in the urine” value ([4]; all treatments, 5 subjects) was 13%, the “deaths or other serious adverse events” value ([4]; during the study) was “No deaths or other serious adverse events occurred” and the “vital sign measurements, electrocardiogram results, physical examination findings” value ([4]; in vivo) was “No clinically significant trends”. The “subjects with clinically significant laboratory abnormalities after dose administration” value ([4]; number of subjects, all treatments) was 13, the “AEs considered by the investigator to be related to CCI-779 treatment” value ([4]; number of the 45 AEs) was 16 and the “subjects with at least 1 treatment-emergent adverse event (AE)” value ([4]; of the 40 subjects who received CCI-779, all treatments) was 48%. For the same compound, the aqueous stability [5] was “aqueous instability”, the “stability of hydroalcoholic granulation solution of CCI-779” value ([5]; after its preparation) was “precipitating within one day” and the solubility (Water solubility) was < 1 µg/mL.
